Values quoted from earlier work as cited in US20210069377A1, “TISSUE SCAFFOLD” (priority 2018, published 2021).

Details: at 20° C. and 1 atm

O=C(CO)[C@@H](O)[C@H](O)[C@H](O)CO [Fructose]
solubility: about 375 g/100 g water
